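Compound exposure: 48 hours, 5 concentrations, 96-well plates. TGI: total growth inhibition.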
Experiments:
Experiment in all cases: NCI-60 cell line screen, 48 h
CCRF-CEM leukemia = system: CCRF-CEM leukemia
SF-268 CNS = system: SF-268 CNS
SNB-75 CNS = system: SNB-75 CNS
K-562 leukemia = system: K-562 leukemia
DU-145 prostate = system: DU-145 prostate
SK-MEL-2 melanoma = system: SK-MEL-2 melanoma
HOP-92 NSCLC = system: HOP-92 NSCLC
SW-620 colon = system: SW-620 colon
UO-31 renal = system: UO-31 renal
MALME-3M melanoma = system: MALME-3M melanoma
CAKI-1 renal = system: CAKI-1 renal
PC-3 prostate = system: PC-3 prostate
OVCAR-3 ovarian = system: OVCAR-3 ovarian
IGROV1 ovarian = system: IGROV1 ovarian
NCI-H226 lung = system: NCI-H226 lung
SK-MEL-28 melanoma = system: SK-MEL-28 melanoma
SK-MEL-5 melanoma = system: SK-MEL-5 melanoma
MDA-MB-231 breast = system: MDA-MB-231 breast
HCC-2998 colon = system: HCC-2998 colon

SMILES	TGI (CCRF-CEM leukemia) [µM]	TGI (SF-268 CNS) [µM]	TGI (SNB-75 CNS) [µM]	TGI (K-562 leukemia) [µM]	TGI (DU-145 prostate) [µM]	TGI (SK-MEL-2 melanoma) [µM]	TGI (HOP-92 NSCLC) [µM]	TGI (SW-620 colon) [µM]	TGI (UO-31 renal) [µM]	TGI (MALME-3M melanoma) [µM]	TGI (CAKI-1 renal) [µM]	TGI (PC-3 prostate) [µM]	TGI (OVCAR-3 ovarian) [µM]	TGI (IGROV1 ovarian) [µM]	TGI (NCI-H226 lung) [µM]	TGI (SK-MEL-28 melanoma) [µM]	TGI (SK-MEL-5 melanoma) [µM]	TGI (MDA-MB-231 breast) [µM]	TGI (HCC-2998 colon) [µM]
Nc1ccc(Oc2ccc(C3(c4ccc(Oc5ccc(N)cc5)cc4)C4CC5CC(C4)CC3C5)cc2)cc1	35.8	> 95.3	> 100	> 100	> 53.5	> 100	35.9	> 66.5	21.4	> 64.2	> 83.4	> 52.9	9.78	> 44.5	> 78.4	> 77.9	> 100	37.6	–
C=CCN1COc2c(cc3c4c(cccc24)C(=O)O3)C1	44.8	> 100	77.6	68.6	–	> 100	30.5	62.7	40.8	> 10	49.3	–	72.5	> 100	> 100	57.2	> 100	–	> 100
O=C1NC(=O)C(C(=O)C(=O)Nc2ccc(Cl)cc2Cl)C(=O)N1	> 100	–	–	> 100	–	> 100	> 100	> 100	> 100	> 100	> 100	–	> 100	> 100	–	–	> 100	–	> 100
CCOC(=O)C1(C(=O)OCC)C[C@@H](C)[C@@H](O)C1	> 100	> 100	> 100	> 100	> 100	> 100	> 100	> 100	> 100	> 100	> 100	> 100	> 100	> 100	> 100	> 100	> 100	> 100	–
O=c1c2ccccc2nc2n1-c1ccccc1SC2	> 100	> 100	56.2	> 100	–	> 100	> 100	> 100	> 100	> 100	> 100	–	> 100	> 100	–	> 100	86.9	–	> 100
CC1(C)CC(=O)C2=C(C1)NC1=C(C2)C(=O)CC(C)(C)C1	> 100	> 100	> 100	> 100	> 100	–	–	> 100	> 100	> 100	> 100	> 100	> 100	> 100	> 100	> 100	> 100	> 100	> 100
Clc1ccc(CCn2cncn2)cc1	> 100	> 100	> 100	> 100	–	> 100	> 100	> 100	> 100	> 100	> 100	–	> 100	> 100	> 100	> 100	> 100	–	–
N#CC1=C(c2ccccc2)C(=C2Nc3ccccc3N2)C2S/C(=C\c3ccccc3)C(=O)N2C1=N (stereo not given)	6.66	6.35	3.77	50.5	–	4.05	2.67	15.8	3.74	4.07	4.01	–	3.37	4.71	3.73	10.5	3.3	–	13.3
O=C1C=CC2(C=C1)CCNC1=C2C(=O)c2ccccc2C1=O	> 100	> 100	> 100	> 100	–	> 100	> 100	> 100	> 100	> 100	–	–	76.7	> 100	> 100	> 100	> 100	–	> 100
Cc1ccc(C(c2c(O)c3ccccc3n(-c3ccccc3)c2=O)c2c(O)c3ccccc3n(-c3ccccc3)c2=O)cc1	> 100	> 100	–	> 100	–	> 100	> 100	> 100	> 100	> 100	> 100	–	> 100	–	> 100	> 100	> 100	–	> 100
COc1ccc(-c2c3c(n(C4OC(COC(C)=O)C(OC(C)=O)C(OC(C)=O)C4OC(C)=O)c(=S)c2C#N)CCC3)cc1 (stereo not given)	> 100	> 100	> 100	> 100	> 100	> 100	49.3	> 100	> 100	> 100	> 100	> 100	> 100	> 100	–	> 100	> 100	–	> 100
NC(=O)/C(=N\NC(=O)C[n+]1ccccc1)C1NC(=O)NC1=O (stereo not given)	> 100	> 100	> 100	> 100	–	> 100	> 100	> 100	> 100	> 100	> 100	–	> 100	> 100	> 100	> 100	> 100	–	> 100
Cc1nc(N2N=C(c3ccc(Cl)cc3)CCC2=O)sc1[N+](=O)[O-]	> 100	> 100	> 100	> 100	–	> 100	–	> 100	> 100	> 100	> 100	–	> 100	> 100	> 100	> 100	> 100	–	> 100
CCOC(=O)C(C(=O)OCC)c1ccc([N+](=O)[O-])o1	> 22.8	70.3	37.3	> 30.7	–	34.1	15	9.94	29	17.6	16.1	–	15.8	42.1	45.7	27.1	31.5	–	31.3
